Results: patent publication US20230286930A1, “N -SUBSTITUTED 4-(1,3-ARYLOXAZOLO-2-YL)PHENYL COMPOUNDS FOR THE TREATMENT AND PROPHYLAXIS OF HEPATITIS B VIRUS INFECTION” (Hoffmann-La Roche Inc., priority 2020, published 2023)

Legend:
HBsAg = experiment: PHH natural infection assay, HBsAg (alphalisa); type: cell-based, HBV; details: Hepatitis B virus, read-out: HBsAg IC50
Description: (§1) Detailed procedures regarding primary human hepatocyte (PHH) HBV natural infection assay are described as below. One tube of frozen PHH (10 million cells) is thawed in 37° C. water bath and then transferred to 20 mL of PHH thawing medium (Sigma, InVitroGRO HT Medium, Cat. S03319) with gently mixing. The cells were then centrifuged at […] for 5 min, the supernatant was discarded and the tube was refilled with 25 mL of PHH plating medium (Sigma, InVitroGRO CP Medium, Cat. S03317). The tube was shaken very gently to re-suspend all cells, and then 50 μL of cells were transferred to each well 384-well collagen I coated plate with appropriate liquid handling equipment, e.g. Integra VIAFLO384 or Agilent Bravo. The cells were then cultured for 24 hours in a cell incubator. For HBV infection, after PHH attachment on the culture plate, the plating medium was removed and replenished with PHH culture medium containing HBV virus. The PHH culture medium was prepared with Dulbecco's Modified Eagle Medium (DMEM)/F12 (1:1 in volume ratio) containing 10% fetal bovine serum (Gibco, Cat. 10099141), 5 ng/mL human epidermal growth factor (Gibco, Cat.PHG0311L), 20 ng/mL dexamethasone (Sigma, Cat.D4902-100 mg), 250 ng/mL human recombinant insulin (Gibco, Cat.41400045) and 100 U/mL penicillin. HBV virus at 200 genome equivalent (GE) per cell with 4% PEG8000 (Sigma, Cat.P1458) containing culture medium were added to the PHH culture medium for infection. The cells were then cultured for 24 hours in cell incubator. Then the cell culture supernatant was removed. The HBV-infected PHH were cultured with sandwich culture method with PHH culture medium containing 1% DMSO and 0.25 mg/mL matrix gel for 72 hours. The supernatant was then refreshed with PHH culture medium containing different concentrations of testing compounds for two times with 72-hour interval. At the end of treatment, the supernatant was collected for viral markers measurements, including HBsAg, HBeAg, HBV DNA and cytotoxicity. HBsAg and HBeAg were detected using alphalisa method using their specific antibodies. For HBV DNA detection, HBV DNA Quantitative Fluorescence Diagnostic Kit (Sansure Biotech Inc.) was used following the manufacture's protocol. Cytotoxicity was determined using Cell Counting Kit-8 (CCK8, Dojindo Molecular Technologies, Inc.).
(§2) The compounds of the present invention were tested for their capacity to inhibit HBsAg and HBeAg as described herein.

[1] = PHH natural infection assay, cytotoxicity (Cell Counting Kit-8); type: cell-based; details: human
Description: as §1

HBeAg = experiment: PHH natural infection assay, HBeAg (alphalisa); type: cell-based, HBV; details: Hepatitis B virus, read-out: HBeAg IC50
Description: as §1, §2

SMILES | IC50 (HBsAg) | CC50 at 144 h [1] | IC50 (HBeAg)
CC(C)OC(=O)Nc1ccc(-c2nc3c(F)cccc3o2)cc1 [Example 60, isopropyl N-[4-(4-fluoro-1,3-benzoxazol-2-yl)phenyl]carbamate] | 5040 nM | > 100 µM | 3000 nM
CC(C)(C)C(=O)Nc1ccc(-c2nc3cccnc3o2)cc1 [Example 61, 2,2-dimethyl-N-(4-oxazolo[5,4-b]pyridin-2-ylphenyl)propanamide] | 1500 nM | > 100 µM | 1550 nM
COC(C)C(=O)Nc1ccc(-c2nc3cccnc3o2)cc1 (stereo not drawn) [Example 62, 2-methoxy-N-(4-oxazolo[5,4-b]pyridin-2-ylphenyl)propanamide] | 1610 nM | > 100 µM | 3290 nM
O=C(Nc1ccc(-c2nc3cccnc3o2)cc1)C1CCS(=O)(=O)C1 (stereo not drawn) [Example 63, N-(4-oxazolo[5,4-b]pyridin-2-ylphenyl)-1,1-dioxo-thiolane-3-carboxamide] | 2530 nM | > 100 µM | 4830 nM
CC1(C(=O)Nc2ccc(-c3nc4cccnc4o3)cc2)CCOC1 (stereo not drawn) [Example 64, 3-methyl-N-(4-oxazolo[5,4-b]pyridin-2-ylphenyl)tetrahydrofuran-3-carboxamide] | 2760 nM | > 100 µM | 3560 nM
CC1(C(=O)Nc2ccc(-c3nc4cccnc4o3)cc2)COC1 [Example 65, 3-methyl-N-(4-oxazolo[5,4-b]pyridin-2-ylphenyl)oxetane-3-carboxamide] | 2730 nM | > 100 µM | 2200 nM
O=C(Nc1ccc(-c2nc3cccnc3o2)cc1)C1CCS(=O)(=O)CC1 [Example 66, N-(4-oxazolo[5,4-b]pyridin-2-ylphenyl)-1,1-dioxo-thiane-4-carboxamide] | 3900 nM | > 100 µM | 6110 nM
O=C(Nc1ccc(-c2nc3cccnc3o2)cc1)C1CCOC1 (stereo not drawn) [Example 67, N-(4-oxazolo[5,4-b]pyridin-2-ylphenyl)tetrahydrofuran-3-carboxamide] | 3080 nM | > 100 µM | 3300 nM
O=C(Nc1ccc(-c2nc3cccnc3o2)cc1)C1COC1 [Example 68, N-(4-oxazolo[5,4-b]pyridin-2-ylphenyl)oxetane-3-carboxamide] | 4510 nM | > 100 µM | 4220 nM
O=C(Nc1ccc(-c2nc3c(F)c(F)ccc3o2)cc1)C1CCOC1 (stereo not drawn) [Example 69, N-[4-(4,5-difluoro-1,3-benzoxazol-2-yl)phenyl]tetrahydrofuran-3-carboxamide] | 1490 nM | > 100 µM | 2100 nM
O=C(Nc1ccc(-c2nc3cc(F)cc(F)c3o2)cc1)C1CCOC1 (stereo not drawn) [Example 70, N-[4-(5,7-difluoro-1,3-benzoxazol-2-yl)phenyl]tetrahydrofuran-3-carboxamide] | 1750 nM | > 100 µM | 2460 nM
Cc1ccc2nc(-c3ccc(NC(=O)C4CCOC4)cc3)oc2n1 (stereo not drawn) [Example 71, N-[4-(5-methyloxazolo[5,4-b]pyridin-2-yl)phenyl]tetrahydrofuran-3-carboxamide] | 9290 nM | > 100 µM | 17500 nM
COc1ccc2nc(-c3ccc(NC(=O)C4CCOC4)cc3)oc2n1 (stereo not drawn) [Example 72, N-[4-(5-methoxyoxazolo[5,4-b]pyridin-2-yl)phenyl]tetrahydrofuran-3-carboxamide] | 2220 nM | > 100 µM | 2610 nM
O=C(Nc1ccc(-c2nc3cc(Cl)ccc3o2)cc1)c1ncco1 [Example 73, N-[4-(5-chloro-1,3-benzoxazol-2-yl)phenyl]oxazole-2-carboxamide] | 1780 nM | > 100 µM | 2050 nM
O=C(Nc1ccc(-c2nc3cc(Cl)ccc3o2)cc1)c1ccccn1 [Example 74, N-[4-(5-chloro-1,3-benzoxazol-2-yl)phenyl]pyridine-2-carboxamide] | 4100 nM | > 100 µM | 5440 nM
O=C(Nc1ccc(-c2nc3cc(Cl)ccc3o2)cc1)C1CCOC1 (stereo not drawn) [Example 75, N-[4-(5-chloro-1,3-benzoxazol-2-yl)phenyl]tetrahydrofuran-3-carboxamide] | 1100 nM | > 100 µM | 1340 nM
O=C(Nc1ccc(-c2nc3cc(Cl)ccc3o2)cc1)C12CC(C1)C2 [Example 76, N-[4-(5-chloro-1,3-benzoxazol-2-yl)phenyl]bicyclo[1.1.1]pentane-1-carboxamide] | 1590 nM | > 100 µM | 2110 nM
CC(O)C(=O)Nc1ccc(-c2nc3cc(Cl)ccc3o2)cc1 (stereo not drawn) [Example 77, N-[4-(5-chloro-1,3-benzoxazol-2-yl)phenyl]-2-hydroxy-propanamide] | 2850 nM | > 100 µM | 2540 nM
Cc1cnc(C(=O)Nc2ccc(-c3nc4ccc(F)c(F)c4o3)cc2)o1 [Example 78, N-[4-(6,7-difluoro-1,3-benzoxazol-2-yl)phenyl]-5-methyl-oxazole-2-carboxamide] | 810 nM | > 100 µM | 1110 nM
Cc1coc(C(=O)Nc2ccc(-c3nc4ccc(F)c(F)c4o3)cc2)n1 [Example 79, N-[4-(6,7-difluoro-1,3-benzoxazol-2-yl)phenyl]-4-methyl-oxazole-2-carboxamide] | 820 nM | > 100 µM | 1030 nM
Cc1nnc(C(=O)Nc2ccc(-c3nc4ccc(F)c(F)c4o3)cc2)o1 [Example 80, N-[4-(6,7-difluoro-1,3-benzoxazol-2-yl)phenyl]-5-methyl-1,3,4-oxadiazole-2-carboxamide] | 1340 nM | > 100 µM | 2110 nM
Cc1ncc(C(=O)Nc2ccc(-c3nc4ccc(F)c(F)c4o3)cc2)o1 [Example 81, N-[4-(6,7-difluoro-1,3-benzoxazol-2-yl)phenyl]-2-methyl-oxazole-5-carboxamide] | 1430 nM | > 100 µM | 2060 nM
O=C(Nc1ccc(-c2nc3ccc(F)c(F)c3o2)cc1)C1CCOC1 (stereo not drawn) [Example 82, N-[4-(6,7-difluoro-1,3-benzoxazol-2-yl)phenyl]tetrahydrofuran-3-carboxamide] | 520 nM | > 100 µM | 550 nM
O=C(Nc1ccc(-c2nc3ccc(F)c(F)c3o2)cc1)C1CCS(=O)(=O)C1 (stereo not drawn) [Example 83, N-[4-(6,7-difluoro-1,3-benzoxazol-2-yl)phenyl]-1,1-dioxo-thiolane-3-carboxamide] | 1790 nM | > 100 µM | 2540 nM
O=C(Nc1ccc(-c2nc3c(F)cc(F)cc3o2)cc1)C1CCOC1 (stereo not drawn) [Example 84, N-[4-(4,6-difluoro-1,3-benzoxazol-2-yl)phenyl]tetrahydrofuran-3-carboxamide] | 1400 nM | > 100 µM | 2010 nM
O=C(Nc1ccc(-c2nc3cccc(Cl)c3o2)cc1)C1CCS(=O)(=O)C1 (stereo not drawn) [Example 85, N-[4-(7-chloro-1,3-benzoxazol-2-yl)phenyl]-1,1-dioxo-thiolane-3-carboxamide] | 2680 nM | > 100 µM | 1720 nM
